Results from patent US20260078120A1, “SUBSTITUTED PYRIDOPYRIMIDINONES” (MIRATI THERAPEUTICS, INC., priority 2022, published 2026).

Tests used:
[1] = tested on: T47D (PI3Kα H1047R mutant) cells; experiment: CellTiter-Glo 2.0 luminescent cell viability assay, 72 hours, T47D cells; type: cell-based; settings: Homo sapiens, T47D, 72 h, T47D (PI3Kα H1047R mutant) cells, CellTiter-Glo, approximately 72 hours; read-out: T47D (H1047R mutant) Viability IC50
Outline: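 Cells seeded at 1000 per well overnight were dosed with a 10-concentration, 1:4 series starting at 10 µM and incubated ~72 h at 37° C. Viability was read by CellTiter-Glo 2.0 luminescence after 30 min at room temperature. IC50 came from four-parameter fits of percent vehicle control.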

[2] = tested on: SKBR3 (PI3Kα wild type) cells; experiment: CellTiter-Glo 2.0 luminescent cell viability assay, 72 hours, SKBR3 cells; type: cell-based; settings: Homo sapiens, SK-BR-3, 72 h, SKBR3 (PI3Kα wild type) cells, CellTiter-Glo, approximately 72 hours; read-out: SKBR3 (WT) Viability IC50
Outline: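 Viability measured via CTG luminescence following roughly 72 hours of compound exposure at 37° C. Dosing used a 10 um starting concentration diluted 1:4 over 10 points; percent-of-vehicle data fitted with a variable-slope four-parameter model for IC50.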

C[C@H](Nc1ccccc1C(=O)O)c1cc(C(F)F)cn2c(=O)c(C#N)c(N3CCC(F)(F)CC3)nc12 [Example 11-169, (S)-2-((1-(3-cyano-7-(difluoromethyl)-2-(4,4-difluoropiperidin-1-yl)-4-oxo-4H-pyrido[1,2-a]pyrimidin-9-yl)ethyl)amino)benzoic acid]
IC50 [1]: > 10 µM | IC50 [2]: > 10 µM

CC(Nc1ccccc1C(=O)O)c1cc(C(F)F)cn2c(=O)c(C#N)c(N3CCC(F)(F)CC3)nc12 (centres unmarked) [Example 11-170, 2-((1-(3-cyano-7-(difluoromethyl)-2-(4,4-difluoropiperidin-1-yl)-4-oxo-4H-pyrido[1,2-a]pyrimidin-9-yl)ethyl)amino)benzoic acid]
IC50 [1]: 0.167 µM | IC50 [2]: > 10 µM

Cc1c(N2CCC(F)(F)CC2)nc2c([C@@H](C)Nc3ccccc3C(=O)O)cc(C(F)F)cn2c1=O [Example 11-171, (R)-2-((1-(7-(difluoromethyl)-2-(4,4-difluoropiperidin-1-yl)-3-methyl-4-oxo-4H-pyrido[1,2-a]pyrimidin-9-yl)ethyl)amino)benzoic acid]
IC50 [1]: 0.227 µM | IC50 [2]: > 10 µM

Cc1cc([C@@H](C)Nc2ccccc2C(=O)O)c2nc(N3CC4(CCN(c5ccc(C#N)cc5)CC4)C3)c(C#N)c(=O)n2c1 [Example 11-172, (R)-2-((1-(3-cyano-2-(7-(4-cyanophenyl)-2,7-diazaspiro[3.5]nonan-2-yl)-7-methyl-4-oxo-4H-pyrido[1,2-a]pyrimidin-9-yl)ethyl)amino)benzoic acid]
IC50 [1]: 0.21 µM | IC50 [2]: > 10 µM

Cc1cc([C@@H](C)Nc2ccccc2C(=O)O)c2nc(N3CCN(c4cn(C)nc4C(F)(F)F)CC3)c(C#N)c(=O)n2c1 [Example 11-173, (R)-2-((1-(3-cyano-7-methyl-2-(4-(1-methyl-3-(trifluoromethyl)-1H-pyrazol-4-yl)piperazin-1-yl)-4-oxo-4H-pyrido[1,2-a]pyrimidin-9-yl)ethyl)amino)benzoic acid]
IC50 [1]: 0.145 µM | IC50 [2]: > 10 µM

Cc1cc([C@@H](C)Nc2ccccc2C(=O)O)c2nc(N3C[C@H]4C[C@@H]3CN4c3ccc(C#N)cc3)c(C#N)c(=O)n2c1 [Example 11-174, 2-(((R)-1-(3-cyano-2-((1R,4R)-5-(4-cyanophenyl)-2,5-diazabicyclo[2.2.1]heptan-2-yl)-7-methyl-4-oxo-4H-pyrido[1,2-a]pyrimidin-9-yl)ethyl)amino)benzoic acid]
IC50 [1]: 0.9 µM | IC50 [2]: > 10 µM

Cc1cc([C@@H](C)Nc2ccccc2C(=O)O)c2nc(N3C[C@@H]4C[C@H]3CN4c3ccc(C#N)cc3)c(C#N)c(=O)n2c1 [Example 11-175, 2-(((R)-1-(3-cyano-2-((1S,4S)-5-(4-cyanophenyl)-2,5-diazabicyclo[2.2.1]heptan-2-yl)-7-methyl-4-oxo-4H-pyrido[1,2-a]pyrimidin-9-yl)ethyl)amino)benzoic acid]
IC50 [1]: 3 µM | IC50 [2]: > 10 µM

Cc1cc([C@@H](C)Nc2ccccc2C(=O)O)c2nc(N3C[C@H]4C[C@@H]3CN4c3ccc(C#N)cc3)c(C)c(=O)n2c1 [Example 11-176, 2-(((R)-1-(2-((1R,4R)-5-(4-cyanophenyl)-2,5-diazabicyclo[2.2.1]heptan-2-yl)-3,7-dimethyl-4-oxo-4H-pyrido[1,2-a]pyrimidin-9-yl)ethyl)amino)benzoic acid]
IC50 [1]: 0.723 µM | IC50 [2]: > 10 µM

Cc1cc([C@@H](C)Nc2ccccc2C(=O)O)c2nc(N3C[C@@H]4C[C@H]3CN4c3ccc(C#N)cc3)c(C)c(=O)n2c1 [Example 11-177, 2-(((R)-1-(2-((1S,4S)-5-(4-cyanophenyl)-2,5-diazabicyclo[2.2.1]heptan-2-yl)-3,7-dimethyl-4-oxo-4H-pyrido[1,2-a]pyrimidin-9-yl)ethyl)amino)benzoic acid]
IC50 [1]: 1.57 µM | IC50 [2]: > 10 µM

Cc1cc([C@@H](C)Nc2ccccc2C(=O)O)c2nc(N3C4CNCC3C4)c(C#N)c(=O)n2c1 [Example 11-178, 2-(((1R)-1-(2-(3,6-diazabicyclo[3.1.1]heptan-6-yl)-3-cyano-7-methyl-4-oxo-4H-pyrido[1,2-a]pyrimidin-9-yl)ethyl)amino)benzoic acid]
IC50 [1]: ≥ 10 µM | IC50 [2]: > 10 µM
